Data set [1] is described as follows: Metabolic stability test in rat liver microsome. Format: in vitro ADME. On the technique in general: Microsomes from liver hold many membrane-bound enzymes, among them those of drug oxidation.
In data set [2] the target is T1, hERG current (hERG-transfected HEK293 cells) (Homo sapiens, UniProt Q12809).
T1 construct: host or cells: HEK293
As to the kind of experiment: hERG whole cell patch clamp test. Format: cell-based. Conditions: whole cell patch clamp, hERG-transfected HEK293 cells. The method, then:
(§1) Using human ether-a-go-go related gene (hERG)-transfected HEK293 cells (Cytomyx Limited), an influence on hERG current was examined according to the whole cell patch clamp technique. The hERG-transfected HEK293 cells were passaged using a CO2 incubator (BNA-111, TABAI ESPEC CORP.) under the set conditions of 37° C., 5% CO2, saturated humidity. Culture containers used were Collagen Type I Coated 75 cm^2 flask (4123-010, AGC TECHNO GLASS CO., Ltd.) and Collagen Type I Coated 35 mm culture dish (4000-010, AGC TECHNO GLASS CO., Ltd.). The culture medium used was E-MEM (Eagle Minimum Essential Medium (Earle's Salts, Nikken biomedical laboratory) added with 10% FCS (Fetal bovine serum, BioWest, L.L.C.) and 1% MEM Non-Essential Amino Acids Solution (NEAA, Invitrogen Corporation). Geneticin for the selection of hERG gene expressing cells was added thereto to a concentration of 400 μg/mL. As the cells for the measurement, 3×10^4 hERG-transfected HEK293 cells were plated on a 35 mm culture dish 4 to 7 days before measurement of the hERG current. The culture dish produced for the measurement contained the above-mentioned culture medium without geneticin (Invitrogen Corporation).
(§2) The highest evaluation concentration of each compound was determined from the highest concentration at which precipitation was not found in the standard extracellular fluid (NaCl: 140 mmol/L, KCl: 2.5 mmol/L, MgCl2: 2 mmol/L, CaCl2: 2 mmol/L, HEPES: 10 mmol/L, glucose: 10 mmol/L (adjusted to pH 7.4 with Tris-base)). As the application method, each solution to be applied was ejected from a Y-tube having a tip diameter of about 0.25 mm, which was adjacent (about 2 mm) to the cells, and applied to the cells. The ejection rate was about 0.4 mL/min.
(§3) The experiment was performed at room temperature under a phase contrast microscope. The 35 mm culture dish plated with the cells was set on a measurement apparatus, and the standard extracellular fluid was continuously applied to the cells from the Y-tube. A glass electrode for the measurement was filled with an intracellular fluid (Potassium Gluconate: 130 mmol/L, KCl: 20 mmol/L, MgCl2: 1 mmol/L, ATP-Mg: 5 mmol/L, EGTA: 3.5 mmol/L, HEPES: 10 mmol/L (adjusted to pH 7.2 with Tris-base)). A conventional whole cell patch clamp method was applied to the cells, and the maintenance electric potential was set to −80 mV. Under a fixed electric potential, the whole cell current was amplified by an amplifier for patch clamp (AXOPATCH-200B, Axon Instruments, Inc.), and the data was loaded into a computer (IMC-P642400, Intermedical Co., Ltd.) using a data acquisition analysis software (pCLAMP 9.2, Axon Instruments, Inc.).
(§4) The measurement of the hERG current was performed in the following two steps. In both cases, the hERG current was initiated by giving a command potential (maintenance electric potential −80 mV, prepulse+20 mV, 1.5 sec, test-pulse −50 mV, 1.5 sec).
(§5) Step (1): The above-mentioned command potential was given at 0.1 Hz for 2 min.
(§6) Step (2): The above-mentioned command potential was subjected to P/3 subtraction of pCLAMP 9.2 to remove leak current. This was repeated three times and an average thereof was taken as hERG current.
(§7) Subsequent to step (1), Step (2) was performed (about 3 min), and the maximum tail current obtained by applying a test-pulse to the hERG current obtained by the method of step (2) was taken as hERG current value. Hereafter, the operations of (1) and (2) were alternately repeated until completion of the experiment and the hERG current value was measured.
(§8) Stable hERG current value was recorded three times (about 10 min), and the standard extracellular fluid was instantaneously exchanged with each application fluid. The hERG current value was measured three times (about 10 min) in the same manner during perfusion of the application fluid, and the current value obtained by the 3rd measurement was taken as hERG current value after perfusion of the application fluid. […]
A general note: The hERG channel carries a current that helps repolarise heart muscle cells.

In another data set the target is T2, hERG (Homo sapiens, UniProt Q12809).
T2 construct: host or cells: HEK293
T2 sequence (Q12809 whole entry): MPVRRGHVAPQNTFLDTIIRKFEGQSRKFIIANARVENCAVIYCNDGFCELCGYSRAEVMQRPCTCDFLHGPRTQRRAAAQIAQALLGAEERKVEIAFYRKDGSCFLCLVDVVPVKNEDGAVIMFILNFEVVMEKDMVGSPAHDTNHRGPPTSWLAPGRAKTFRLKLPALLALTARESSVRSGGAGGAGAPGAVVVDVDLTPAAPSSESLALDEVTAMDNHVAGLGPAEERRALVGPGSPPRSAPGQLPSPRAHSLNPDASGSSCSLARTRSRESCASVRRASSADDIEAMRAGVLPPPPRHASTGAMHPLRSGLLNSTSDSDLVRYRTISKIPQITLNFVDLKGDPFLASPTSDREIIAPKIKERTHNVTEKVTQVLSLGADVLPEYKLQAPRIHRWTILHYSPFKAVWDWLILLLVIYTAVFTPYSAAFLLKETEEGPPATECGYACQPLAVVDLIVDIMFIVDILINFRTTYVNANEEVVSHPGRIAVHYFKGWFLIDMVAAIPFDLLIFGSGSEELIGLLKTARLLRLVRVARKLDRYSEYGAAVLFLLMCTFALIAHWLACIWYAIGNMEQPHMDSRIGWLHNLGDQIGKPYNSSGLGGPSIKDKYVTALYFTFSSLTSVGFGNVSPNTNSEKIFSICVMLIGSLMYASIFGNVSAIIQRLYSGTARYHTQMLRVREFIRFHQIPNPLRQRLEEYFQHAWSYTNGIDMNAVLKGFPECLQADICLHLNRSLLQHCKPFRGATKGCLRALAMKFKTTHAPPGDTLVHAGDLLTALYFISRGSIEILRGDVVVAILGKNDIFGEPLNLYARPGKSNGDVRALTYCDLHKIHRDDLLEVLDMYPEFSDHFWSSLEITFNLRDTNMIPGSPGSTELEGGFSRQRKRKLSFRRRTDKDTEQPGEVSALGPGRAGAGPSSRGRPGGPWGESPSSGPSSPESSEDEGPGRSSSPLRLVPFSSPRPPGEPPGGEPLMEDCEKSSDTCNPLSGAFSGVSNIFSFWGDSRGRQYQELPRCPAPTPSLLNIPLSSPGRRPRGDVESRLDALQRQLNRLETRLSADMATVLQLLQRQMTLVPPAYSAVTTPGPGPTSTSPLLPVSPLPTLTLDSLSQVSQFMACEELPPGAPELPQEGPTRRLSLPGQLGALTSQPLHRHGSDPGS
As to the kind of experiment: hERG whole cell patch clamp test. Format: cell-based. The note with it: human, HEK293 cells transfected with hERG, pH 7.4, read-out: hERG inhibition rate (%); for inhibition at 10 μmol/L: concentration 10 μmol/L. The method, then: as §1, §2, §3, §4, §5, §6, §7, §8

Molecules are shown by their SMILES.

T1 sequence (Q12809 whole entry): as above

Turning to `C[C@H](O)COc1cc(-c2cnn(C(C)(C)C(N)=O)c2)c2c(c1)[C@@](O)(C(F)(F)F)c1ccccc1-2` [compound (2), 2-(4-{(9R)-9-hydroxy-2-[(2S)-2-hydroxypropoxy]-9-(trifluoromethyl)-9H-fluoren-4-yl}-1H-pyrazol-1-yl)-2-methylpropanamide], the results for the “stability in liver microsome (residual ratio %)” value in data set [1] (10 min) and in data set [1] (60 min) were 98.3% and 98.5%, respectively. Further, the IC50 in data set [2] worked out at 58.8 µM. In addition, the inhibition at 10 μmol/L on hERG is 7.5%. The inhibition at 100 μmol/L on hERG (concentration 100 μmol/L) was found to be 62.9%.

Turning to `Cn1cc(-c2cc(OCC(C)(C)O)cc3c2-c2ccccc2[C@]3(O)C(F)(F)F)cn1` [compound (B), (9R)-2-(2-Hydroxy-2-methylpropoxy)-4-(1-methyl-1H-pyrazol-4-yl)-9-(trifluoromethyl)-9H-fluoren-9-ol, reference compound], the “stability in liver microsome (residual ratio %)” value in data set [1] (10 min) is 101.1%; in data set [1] (60 min), 92.1%. In data set [2], this compound gave an IC50 of 3.6 µM. Moreover, on hERG (concentration 1 μmol/L), the inhibition at 1 μmol/L was found to be 17.4%. Further, the inhibition at 10 μmol/L on hERG was determined as 72.9%.

By IC50 is commonly meant the concentration that inhibits the measured activity by half. As a reminder, the inhibition is how much of the control response was suppressed.
